Reference: ChEMBL document CHEMBL5236627, “Synthesis and biological activity evaluation of novel 3,5,7-trisubstituted pyrazolo[1,5-a]pyrimidines” (2023)
One block for each compound: values may come before it. The source made the active and inactive calls. No cut-off for these calls is given here.

Legend:
MV4-11 [1] = test: Anticancer activity against human MV4-11 cells expressing FLT3-ITD mutant; assay type: functional, cell-based
THP-1 = test: Anticancer activity against human THP-1 cells; assay type: functional, cell-based
MCF7 = test: Anticancer activity against human MCF7 cells; assay type: functional, cell-based
MOLM-13 = test: Anticancer activity against human MOLM-13 cells; assay type: functional, cell-based
[2] = molecular target: Cyclin-dependent kinase 9 (Homo sapiens) (UniProt P50750); test: Inhibition of CDK9 (unknown origin)
Sequence of Cyclin-dependent kinase 9 (Homo sapiens) (P50750 whole entry): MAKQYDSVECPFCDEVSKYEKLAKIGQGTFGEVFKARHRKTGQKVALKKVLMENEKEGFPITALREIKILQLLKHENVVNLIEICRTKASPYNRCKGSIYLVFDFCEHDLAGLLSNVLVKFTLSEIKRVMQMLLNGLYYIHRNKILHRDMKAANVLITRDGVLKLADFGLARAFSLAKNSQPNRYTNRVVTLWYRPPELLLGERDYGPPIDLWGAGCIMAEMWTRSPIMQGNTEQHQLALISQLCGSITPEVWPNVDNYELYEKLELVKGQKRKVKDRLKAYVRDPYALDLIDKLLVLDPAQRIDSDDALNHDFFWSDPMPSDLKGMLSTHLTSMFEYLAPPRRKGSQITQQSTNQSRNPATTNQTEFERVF

[3] = molecular target: Cyclin-dependent kinase 2 (Homo sapiens) (UniProt P24941); test: Inhibition of CDK2 (unknown origin)
CCRF-CEM = test: Anticancer activity against FLT3-independent human CCRF-CEM cells; assay type: functional, cell-based
K562 = test: Anticancer activity against human K562 cells; assay type: functional, cell-based
MV4-11 [4] = test: Induction of cell cycle arrest in human MV4-11 cells assessed as accumulation of G1 phase cells at 0.1 uM by PI staining based flow cytometric analysis (reference value: 60.77 % ); assay type: functional
MV4-11 [5] = test: Induction of cell cycle arrest in human MV4-11 cells assessed as G2 phase cells at 10 uM by PI staining based flow cytometric analysis (reference value: 12.61 % ); assay type: functional
MV4-11 [6] = test: Induction of cell cycle arrest in human MV4-11 cells assessed as accumulation of G1 phase cells at 1 uM by PI staining based flow cytometric analysis (reference value: 60.77 % ); assay type: functional
[7] = molecular target: Receptor-type tyrosine-protein kinase FLT3 (Homo sapiens) (UniProt P36888); test: Inhibition of FLT3 autophosphorylation at tyrosine 589/591 residues in human MV4-11 cells at 0.01 uM incubated for 1 hrs by immunoblotting analysis; assay type: cell-based
Sequence of Receptor-type tyrosine-protein kinase FLT3 (Homo sapiens) (P36888 whole entry): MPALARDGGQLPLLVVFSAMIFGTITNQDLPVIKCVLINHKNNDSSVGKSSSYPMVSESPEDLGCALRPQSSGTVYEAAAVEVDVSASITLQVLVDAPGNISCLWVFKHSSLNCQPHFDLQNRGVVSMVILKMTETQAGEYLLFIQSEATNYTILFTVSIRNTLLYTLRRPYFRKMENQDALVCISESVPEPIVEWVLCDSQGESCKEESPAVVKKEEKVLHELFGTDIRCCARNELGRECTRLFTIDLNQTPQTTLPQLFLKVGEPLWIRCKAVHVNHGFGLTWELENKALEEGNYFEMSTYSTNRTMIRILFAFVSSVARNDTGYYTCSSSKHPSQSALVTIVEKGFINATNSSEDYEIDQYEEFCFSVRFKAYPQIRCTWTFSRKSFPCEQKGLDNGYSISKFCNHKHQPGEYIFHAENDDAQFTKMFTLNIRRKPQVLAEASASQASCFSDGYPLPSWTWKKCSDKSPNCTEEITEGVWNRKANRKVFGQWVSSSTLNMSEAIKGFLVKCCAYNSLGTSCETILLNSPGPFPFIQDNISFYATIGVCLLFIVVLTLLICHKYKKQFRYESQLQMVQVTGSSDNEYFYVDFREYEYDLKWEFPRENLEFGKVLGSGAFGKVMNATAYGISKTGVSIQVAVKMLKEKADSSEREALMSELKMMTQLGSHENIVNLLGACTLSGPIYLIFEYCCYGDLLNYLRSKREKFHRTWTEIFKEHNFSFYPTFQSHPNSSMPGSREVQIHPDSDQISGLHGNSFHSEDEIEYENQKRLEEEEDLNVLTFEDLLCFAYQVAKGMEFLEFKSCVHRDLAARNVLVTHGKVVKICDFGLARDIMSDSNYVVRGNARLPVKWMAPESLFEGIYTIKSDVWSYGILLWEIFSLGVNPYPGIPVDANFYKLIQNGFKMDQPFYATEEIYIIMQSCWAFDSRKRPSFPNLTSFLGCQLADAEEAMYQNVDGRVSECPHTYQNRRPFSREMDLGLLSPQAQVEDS

MV4-11 [8] = test: Induction of cell cycle arrest in human MV4-11 cells assessed as accumulation of G1 phase cells at 10 uM by PI staining based flow cytometric analysis (reference value: 60.77 % ); assay type: functional
MV4-11 [9] = test: Induction of cell cycle arrest in human MV4-11 cells assessed as S phase cells at 0.1 uM by PI staining based flow cytometric analysis (reference value: 26.62 % ); assay type: functional
MV4-11 [10] = test: Induction of cell cycle arrest in human MV4-11 cells assessed as G2 phase cells at 0.001 uM by PI staining based flow cytometric analysis (reference value: 12.61 % ); assay type: functional
MV4-11 [11] = test: Induction of cell cycle arrest in human MV4-11 cells assessed as S phase cells at 10 uM by PI staining based flow cytometric analysis (reference value: 26.62 % ); assay type: functional
MV4-11 [12] = test: Induction of cell cycle arrest in human MV4-11 cells assessed as G2 phase cells at 0.1 uM by PI staining based flow cytometric analysis (reference value: 12.61 % ); assay type: functional
MV4-11 [13] = test: Induction of cell cycle arrest in human MV4-11 cells assessed as accumulation of G1 phase cells at 0.001 uM by PI staining based flow cytometric analysis (reference value: 60.77 % ); assay type: functional
MV4-11 [14] = test: Induction of cell cycle arrest in human MV4-11 cells assessed as S phase cells at 1 uM by PI staining based flow cytometric analysis (reference value: 26.62 % ); assay type: functional
[15] = molecular target: Mitogen-activated protein kinase; ERK1/ERK2 (Homo sapiens) (UniProt P27361+P28482); test: Inhibition of ERK1/2 phosphorylation at Thr202/Tyr204 residues in human MV4-11 cells at 0.1 uM incubated for 1 hrs by immunoblotting analysis; assay type: cell-based
Sequence of Mitogen-activated protein kinase; ERK1/ERK2 (Homo sapiens) (P27361 whole entry, looked up): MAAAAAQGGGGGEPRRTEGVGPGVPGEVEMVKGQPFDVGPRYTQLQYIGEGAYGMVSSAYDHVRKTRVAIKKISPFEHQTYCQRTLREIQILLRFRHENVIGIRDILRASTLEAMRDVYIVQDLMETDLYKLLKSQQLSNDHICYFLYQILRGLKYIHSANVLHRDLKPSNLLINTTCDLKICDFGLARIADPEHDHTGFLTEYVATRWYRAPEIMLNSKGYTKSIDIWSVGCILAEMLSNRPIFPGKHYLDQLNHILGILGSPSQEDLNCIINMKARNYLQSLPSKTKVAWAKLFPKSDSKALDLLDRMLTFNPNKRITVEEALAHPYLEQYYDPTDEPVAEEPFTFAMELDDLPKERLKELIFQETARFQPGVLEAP
Sequence of Mitogen-activated protein kinase; ERK1/ERK2 (Homo sapiens) (P28482 whole entry, looked up): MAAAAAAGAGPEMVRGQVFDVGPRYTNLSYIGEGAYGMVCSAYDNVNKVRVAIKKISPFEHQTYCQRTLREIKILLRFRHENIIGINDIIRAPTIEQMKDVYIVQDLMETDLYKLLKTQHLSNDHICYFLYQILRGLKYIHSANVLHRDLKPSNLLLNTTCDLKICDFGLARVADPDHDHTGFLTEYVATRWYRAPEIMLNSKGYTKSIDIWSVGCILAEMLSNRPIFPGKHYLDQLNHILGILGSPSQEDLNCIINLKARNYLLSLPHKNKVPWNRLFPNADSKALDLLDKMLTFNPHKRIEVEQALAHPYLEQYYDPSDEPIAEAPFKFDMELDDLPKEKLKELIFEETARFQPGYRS

MV4-11 [16] = test: Induction of cell cycle arrest in human MV4-11 cells assessed as S phase cells at 0.01 uM by PI staining based flow cytometric analysis (reference value: 26.62 % ); assay type: functional
[17] = molecular target: T1, Signal transducer and activator of transcription 5A (Homo sapiens) (UniProt P42229); test: Inhibition of STAT5 phosphorylation in human MV4-11 cells at 0.01 uM incubated for 1 hrs by immunoblotting analysis; assay type: cell-based
T1 sequence (whole entry): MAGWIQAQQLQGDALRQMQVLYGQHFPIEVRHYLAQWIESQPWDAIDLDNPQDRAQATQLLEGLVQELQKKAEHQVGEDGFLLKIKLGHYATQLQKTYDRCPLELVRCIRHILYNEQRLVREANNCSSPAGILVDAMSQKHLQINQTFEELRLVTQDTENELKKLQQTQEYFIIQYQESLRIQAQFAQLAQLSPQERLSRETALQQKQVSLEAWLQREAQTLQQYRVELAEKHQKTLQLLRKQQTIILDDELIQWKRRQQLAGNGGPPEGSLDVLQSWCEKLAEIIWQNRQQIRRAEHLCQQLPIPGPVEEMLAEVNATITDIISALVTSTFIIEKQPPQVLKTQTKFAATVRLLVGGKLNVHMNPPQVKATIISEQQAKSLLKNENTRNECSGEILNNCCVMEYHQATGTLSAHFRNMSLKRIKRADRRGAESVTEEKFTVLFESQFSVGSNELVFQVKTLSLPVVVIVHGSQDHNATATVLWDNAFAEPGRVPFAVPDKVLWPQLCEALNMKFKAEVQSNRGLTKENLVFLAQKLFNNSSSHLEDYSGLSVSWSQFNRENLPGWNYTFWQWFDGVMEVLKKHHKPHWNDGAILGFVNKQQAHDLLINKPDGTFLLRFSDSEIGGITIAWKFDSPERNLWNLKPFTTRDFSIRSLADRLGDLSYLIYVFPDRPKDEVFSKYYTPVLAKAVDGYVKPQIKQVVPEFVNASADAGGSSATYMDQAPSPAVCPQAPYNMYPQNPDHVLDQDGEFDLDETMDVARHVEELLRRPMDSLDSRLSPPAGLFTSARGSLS

MV4-11 [18] = test: Induction of cell cycle arrest in human MV4-11 cells assessed as accumulation of G1 phase cells at 0.01 uM by PI staining based flow cytometric analysis (reference value: 60.77 % ); assay type: functional
MV4-11 [19] = test: Induction of cell cycle arrest in human MV4-11 cells assessed as G2 phase cells at 0.01 uM by PI staining based flow cytometric analysis (reference value: 12.61 % ); assay type: functional
MV4-11 [20] = test: Induction of cell cycle arrest in human MV4-11 cells assessed as G2 phase cells at 1 uM by PI staining based flow cytometric analysis (reference value: 12.61 % ); assay type: functional
MV4-11 [21] = test: Induction of cell cycle arrest in human MV4-11 cells assessed as S phase cells at 0.001 uM by PI staining based flow cytometric analysis (reference value: 26.62 % ); assay type: functional

inhibition [2]: Active
inhibition [3]: Active
Structure (SMILES): N[C@H]1CC[C@H](Nc2cc(Nc3ccc(-c4cccs4)nc3)n3ncc(C4CCCC4)c3n2)CC1
Activity (MV4-11 [1]): Active
Activity (THP-1): Active
Activity (MCF7): Active
Activity (MOLM-13): Active
Activity (CCRF-CEM): Active
Activity (K562): Active

Structure (SMILES): N[C@H]1CC[C@H](Nc2cc(Nc3ccc(N4CC5(COC5)C4)cc3)n3ncc(C4CCCC4)c3n2)CC1
Activity (MV4-11 [1]): Active
Activity (MOLM-13): Active

inhibition [7]: Active
inhibition [15]: Active
inhibition [2]: Active
inhibition [17]: Active
inhibition [3]: Active
Structure (SMILES): N[C@H]1CC[C@H](Nc2cc(Nc3ccc(CN4CCOCC4)cc3)n3ncc(C4CCCC4)c3n2)CC1
Activity (MV4-11 [4]): 86.23%
Activity (MV4-11 [5]): 5.93%
Activity (MV4-11 [6]): 76.39%
Activity (MV4-11 [1]): Active
Activity (MV4-11 [8]): 75.69%
Activity (MV4-11 [9]): 8.66%
Activity (THP-1): Active
Activity (MV4-11 [10]): 14.62%
Activity (MV4-11 [11]): 18.38%
Activity (MV4-11 [12]): 5.11%
Activity (MCF7): Active
Activity (MV4-11 [13]): 59.36%
Activity (MV4-11 [14]): 16.48%
Activity (MOLM-13): Active
Activity (MV4-11 [16]): 25.25%
Activity (CCRF-CEM): Active
Activity (MV4-11 [18]): 61.96%
Activity (MV4-11 [19]): 12.79%
Activity (MV4-11 [20]): 7.13%
Activity (K562): Active
Activity (MV4-11 [21]): 26.03%

Structure (SMILES): NCCCCNc1cc(Nc2ccc(CN3CCOCC3)cc2)n2ncc(C3CCCC3)c2n1
Activity (MV4-11 [1]): Active
Activity (MOLM-13): Active

Structure (SMILES): NCCCCNc1cc(NCc2cccc(CN3CCOCC3)c2)n2ncc(C3CCCC3)c2n1
Activity (MV4-11 [1]): Active
Activity (MOLM-13): Active

Structure (SMILES): N[C@H]1CC[C@H](Nc2cc(NCc3ccc(Br)cc3)n3ncc(C4CCCC4)c3n2)CC1
Activity (MV4-11 [1]): Active
Activity (MOLM-13): Active

Structure (SMILES): CC[C@@H](CO)Nc1cc(Nc2ccc(-c3cccs3)nc2)n2ncc(C3CCCC3)c2n1
Activity (MV4-11 [1]): Active
Activity (MOLM-13): Active

Structure (SMILES): N[C@H]1CC[C@H](Nc2cc(Nc3cccc(CN4CCOCC4)c3)n3ncc(C4CCCC4)c3n2)CC1
Activity (MV4-11 [1]): Active
Activity (MOLM-13): Active
